Test [1] relates to RKO colon adenocarcinoma cells (RKOp27) arrested by ectopic p27Kip1. Put plainly: Alamar Blue cell viability assay on RKOp27 cells arrested by p27Kip1 expression induced with Ponasterone A (cell cycle specific mode of action). The class given is cell-based. The following applies: Homo sapiens, RKOp27 cells arrested by p27Kip1 induced with 10 μM Ponasterone A, 72 hours incubation, read-out: IC50 RKO p27 induced (arrested). The procedure:
To determine the cell cycle specific mode of action, subclones of RKO colon adenocarcinoma cells (RKOp27 or RKOp21 as described by Schmidt et al. in Oncogene 19, 2423-2429; 2000) are seeded into 96 well flat bottom plates at a density of 15000 cells per well in a volume of 50 μl per well in DMEM growth medium with 10% FCS containing 10 μM Ponasterone A. 24 hours after seeding the 50 μl each of the compound dilutions in DMEM medium are added into each well of the 96 Well plate. Each compound dilution is tested as quadruplicates. Wells containing untreated control cells are filled with 50 μl DMEM medium containing 1% DMSO. The cells are then incubated with the substances for 72 hours at 37° C. in a humidified atmosphere containing 5% carbon dioxide. To determine the viability of the cells, 10 μl of an Alamar Blue solution (Biosource) are added and the fluorescence was measured at an extinction of 544 nm and an emission of 590 nm. For the calculation of the cell viability the emission value from untreated cells is set as 100% viability and the emission rates of treated cells are set in relation to the values of untreated cells. Viabilities are expressed as % values. Viability is compared of proliferating cells grown in the absence of the inducer Ponasterone A, versus viability of cells arrested by the expression of ectopic p27Kip1 induced by Ponasterone A.
On the technique in general: Alamar Blue is a resazurin reagent that responds to reducing activity.

Test [2] deals with RKO (RKOp27) human colon adenocarcinoma cells. Nature of the test: Alamar Blue cell viability assay, anti-proliferative/cytotoxic activity on proliferating RKOp27 cells. The class given is cell-based. Particulars: no Ponasterone A, 72 hours incubation, read-out: IC50 RKO p27 uninduced (proliferating). The procedure: The anti-proliferative I cytotoxic activity of the compounds described herein, can be tested on subclones of RKO (RKOp27) human colon adenocarcinoma cells (Schmidt et al., Oncogene 19, 2423-2429; 2000) using the Alamar Blue cell viability assay (described in O'Brien et al. Eur J Biochem 267, 5421-5426, 2000). The compounds are dissolved as 20 mM solutions in dimethylsulfoxide (DMSO) and subsequently diluted in semi-logarithmic steps. DMSO dilutions are further diluted 1:100 into Dulbecco's modified Eagle's medium (DMEM) containing 10% fetal calf serum to a final concentration twice as much as the final concentration in the test. RKO subclones are seeded into 96 well flat bottom plates at a density of 5000 cells per well in a volume of 50 μl per well. 24 hours after seeding the 50 μl each of the compound dilutions in DMEM medium are added into each well of the 96 Well plate. Each compound dilution is tested as quadruplicates. Wells containing untreated control cells are filled with 50 μl DMEM medium containing 1% DMSO. The cells are then incubated with the substances for 72 hours at 37° C. in a hunified atmosphere containing 5% carbon dioxide. To determine the viability of the cells, 10 μl of an Alamar Blue solution (Biosource) are added and the fluorescence is measured at an extinction of 544 nm and an emission of 590 nm. For the calculation of the cell viability the emission value from untreated cells is set as 100% viability and the emission rates of treated cells are set in relation to the values of untreated cells. Viabilities are expressed as % values.
The corresponding IC50 values of the compounds for anti-proliferative/cytotoxic activity are determined from the concentration-effect curves.
Representative IC50 values for anti-proliferation/cytotoxicity determined in the mentioned assay follow from the following table A, in which the numbers of the compounds correspond to the numbers of the examples.

We go through 24 compounds from patent US20090258873A1, “Novel tetrahydropyridothiophenes” (priority 2005, published 2009).

By IC50 is commonly meant the concentration that inhibits the measured activity by half. As to `N#Cc1c(NC(=O)CCc2ccccc2)sc2c1CCN(C(=O)CCN1CCOCC1)C2` [Example 18, N-[3-Cyano-6-(3-morpholin-4-yl-propanoyl)-4,5,6,7-tetrahydro-thieno[2,3-c]pyridin-2-yl]-3-phenyl-propionamide], the IC50 is more than 100000 nM in test [1] and 300 to 2000 nM in test [2].

For `Cc1nc2ccccc2n1CCC(=O)N1CCc2c(sc(NC(=O)CCc3ccccc3)c2C#N)C1` [Example 21], the results for the IC50 in test [1] and in test [2] were more than 100000 nM and 300 to 2000 nM, respectively.

Regarding `N#Cc1c(NC(=O)CCC2CCCCC2)sc2c1CCN(C(=O)CCn1ccnc1)C2` [Example 58], the figures for the IC50 in test [1] and in test [2] were more than 100000 nM and 300 to 2000 nM, respectively.

For the compound `COCC(=O)N1CCc2c(sc(NC(=O)CCc3ccccc3)c2C#N)C1` [Example 4, N-[3-Cyano-6-(2-methoxy-ethanoyl)-4,5,6,7-tetrahydro-thieno[2,3-c]pyridin-2-yl]-3-phenyl-propionamide], the IC50 is more than 100000 nM in test [1] and not above 300 nM in test [2].

Take `Cc1nccn1CCC(=O)N1CCc2c(sc(NC(=O)CC(C)c3ccccc3)c2C#N)C1` (racemic) [Example 32, (RS)—N-{3-Cyano-6-[3-(2-methyl-imidazol-1-yl)-propanoyl]-4,5,6,7-tetrahydro-thieno[2,3-c]pyridin-2-yl}-3-phenyl-butyramide]: the figures for the IC50 in test [1] and in test [2] were not below 10000 nM and 300 to 2000 nM, respectively.

Turning to `CCCC(=O)N1CCc2c(sc(NC(=O)CC(C)c3ccccc3)c2C#N)C1` (racemic) [Example 27, (RS)—N-(6-Butyryl-3-cyano-4,5,6,7-tetrahydro-thieno[2,3-c]pyridin-2-yl)-3-phenyl-butyramide], the IC50 in test [1] is more than 100000 nM; in test [2], 300 to 2000 nM.

On to `N#Cc1c(NC(=O)CCc2ccccc2)sc2c1CCN(C(=O)Cc1ccccn1)C2` [Example 3, N-[3-Cyano-(2-pyridin-2-yl-ethanoyl)-4,5,6,7-tetrahydro-thieno[2,3-]pyridin-2-yl]-3-phenyl-propionamide], for which the IC50 was more than 100000 nM in test [1] and not above 300 nM in test [2].

Consider `N#Cc1c(NC(=O)CCc2ccco2)sc2c1CCN(C(=O)CCn1ccnc1)C2` [Example 15, N-[3-Cyano-6-(3-Imidazo-1-yl-propanoyl)-4,5,6,7-tetrahydro-thieno[2,3-c]pyridin-2-yl]-3-furan-2-yl-propionamide], for which the IC50 was more than 100000 nM in test [1] and not above 300 nM in test [2].

For the compound `Cn1ccnc1CCC(=O)N1CCc2c(sc(NC(=O)CCc3ccccc3)c2C#N)C1` [Example 35, N-{3-Cyano-4-[3-(1-methyl-1H-imidazo-2-yl)-propanoyl]-4,5,6,7-tetrahydro-thieno[2,3-c]pyridin-2-yl}-3-phenyl-propionamide], the results for the half-maximal inhibitory concentration (IC50) in test [1] and in test [2] were not below 10000 nM and not above 300 nM, respectively.

Consider `COCCOCC(=O)N1CCc2c(sc(NC(=O)CCc3ccco3)c2C#N)C1` [Example 9, N-{3-Cyano-6-[2-(2-methoxy-ethoxy)-ethanoyl]-4,5,6,7-tetrahydro-thieno[2,3-c]pyridin-2-yl}-3-furan-2-yl-propionamide], for which the results for the IC50 in test [1] and in test [2] were more than 100000 nM and not above 300 nM, respectively.

On to `CC(CC(=O)Nc1sc2c(c1C#N)CCN(C(=O)Cc1ccccn1)C2)c1ccccc1` (racemic) [Example 22, (RS)—N-[3-Cyano-6-(2-pyridin-2-yl-ethanoyl)-4,5,6,7-tetrahydro-thieno[2,3-c]pyridin-2-yl]-3-phenyl-butyramide], for which the IC50 in test [1] was more than 100000 nM; in test [2], not above 300 nM.

For `N#Cc1c(NC(=O)CCc2ccccc2)sc2c1CCN(C(=O)CCc1ccccn1)C2` [Example 30, N-[3-Cyano-6-(3-pyridin-2-yl-propanoyl)-4,5,6,7-tetrahydro-thieno[2,3-c]pyridin-2-yl]-3-phenyl-propionamide], the results for the IC50 in test [1] and in test [2] were more than 100000 nM and not above 300 nM, respectively.

Take `N#Cc1c(NC(=O)CCc2ccccc2)sc2c1CCN(C(=O)CCc1cccnc1)C2` [Example 1, N-[3-Cyano-6-(3-pyridn3-yl-propanoyl)-4,5,6,7-tetrahydro-thieno[2,3-c]pyridin-2-yl]-3-phenyl-propionamide]: the IC50 is more than 100000 nM in test [1] and 300 to 2000 nM in test [2].

Take `Cc1nccn1CCC(=O)N1CCc2c(sc(NC(=O)CCc3ccccc3)c2C#N)C1` [Example 33, N-{3-Cyano-6-[3-(2-methyl-imidazol-1-yl)propanoyl]-4,5,6,7-tetrahydro-thieno[2,3-c]pyridin-2-yl}-3-phenyl-propionamide]: the IC50 is not below 10000 nM in test [1] and 300 to 2000 nM in test [2].

For the compound `N#Cc1c(NC(=O)CCc2ccccc2)sc2c1CCN(C(=O)Cc1cccnc1)C2` [Example 2, N-[3-Cyano-6-(2-pyridin-3-yl-ethanoyl)-4,5,6,7-tetrahydro-thieno[2,3-]pyridin-2-yl]-3-phenyl-propionamide], the figures for the IC50 in test [1] and in test [2] were more than 100000 nM and not above 300 nM, respectively.

`Cc1cn(CCC(=O)N2CCc3c(sc(NC(=O)CCc4ccccc4)c3C#N)C2)cn1` [Example 45, N-[3-Cyano-6-[3-(4-methyl-imidazol-1-yl)-propanoyl]-4,5,6,7-tetrahydro-thieno[2,3-c]pyridin-2-yl]-3-phenyl-propionamide]: the IC50 in test [1] is not below 10000 nM; in test [2], 300 to 2000 nM.

For the compound `N#Cc1c(NC(=O)CCc2ccco2)sc2c1CCN(C(=O)CCc1cccnc1)C2` [Example 12, N-[3-Cyano-4-6-(3-pyridin-3-yl-propanoyl)-4,5,6,7-tetrahydro-thieno[2,3-c]pyridin-2-yl]-3-furan-2-yl-propionamide], the results for the IC50 in test [1] and in test [2] were more than 100000 nM and not above 300 nM, respectively.

With `N#Cc1c(NC(=O)CCc2ccccc2)sc2c1CCN(C(=O)CCc1ccncc1)C2` [Example 39, N-[3-Cyano-6-(3-pyridin-4-yl-propanoyl)-4,5,6,7-tetrahydro-thieno[2,3-c]pyridin-2-yl]-3-phenyl-propionamide], the IC50 is more than 100000 nM in test [1] and not above 300 nM in test [2].

As to `N#Cc1c(NC(=O)CCc2ccccc2)sc2c1CCN(C(=O)Cc1ccncc1)C2` [Example 20, N-[3-Cyano-6-(2-pyridin-4-yl-ethanoyl)-4,5,6,7-tetrahydro[2,3-c]pyridin-2-yl]-3-phenyl-propionamide], the IC50 in test [1] was more than 100000 nM; in test [2], not above 300 nM.

As to `CN1CCN(CCC(=O)N2CCc3c(sc(NC(=O)CCc4ccccc4)c3C#N)C2)CC1` [Example 17, N-[3-Cyano-6-[3-(4-methyl-piperazin-1-yl)-propanoyl]-4,5,6,7-tetrahydro-thieno[2,3-c]pyridin-2-yl]-3-phenyl-propionamide], the IC50 in test [1] is not below 40000 nM; in test [2], 300 to 2000 nM.

Take `Cc1cn(CC(=O)N2CCc3c(sc(NC(=O)CC(C)c4ccccc4)c3C#N)C2)c(C)n1` (racemic) [Example 42, (RS)—N-{3-Cyano-6-[2-(2,4-dimethyl-midazol-1-yl)-ethanoy]-4,5,6,7-tetrahydro-thieno[2,3-c]pyridin-2-yl}-3-phenyl-butyramide]: the IC50 is not below 10000 nM in test [1] and 300 to 2000 nM in test [2].

Take `CC(CC(=O)Nc1sc2c(c1C#N)CCN(C(=O)CCc1cccnc1)C2)c1ccccc1` (racemic) [Example 25, (RS)—N-[3-Cyano-6-(3-pyridin-3-yl-propanoyl)-4,5,6,7-tetrahydro-thieno[2,3-c]pyridin-2-yl]-3-phenyl-butyramide]: the half-maximal inhibitory concentration (IC50) in test [1] is more than 100000 nM; in test [2] it was 300 to 2000 nM.

With `CC(CC(=O)Nc1sc2c(c1C#N)CCN(C(=O)Cn1ccnc1)C2)c1ccccc1` (racemic) [Example 26], the IC50 in test [1] was more than 100000 nM; in test [2], 300 to 2000 nM.

For `N#Cc1c(NC(=O)CCc2ccccc2)sc2c1CCN(C(=O)Cn1ccnc1)C2` [Example 19, N-[3-Cyano-6-(2-imidazol-1-yl-ethanoyl)-4,5,6,7-tetrahydro-thieno[2,3-c]pyridin-2-yl]-3-phenyl-propionamide], the IC50 in test [1] was more than 100000 nM; in test [2], 300 to 2000 nM.
